Test results from patent US7084127B2, “C2,5′-disubstituted and N6, C2,5′-trisubstituted adenosine derivatives and their different uses” (Universiteit Leiden, priority 2001, dated 2006).

Assays:
[1] = biological target: T1, A2A receptor in rat striatum (Rattus norvegicus, UniProt P30543); assay: Radioligand binding, displacement of [3H]ZM241385 from rat striatal membranes; conditions: [3H]ZM241385, rat striatal membranes;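 further: displacement assays run in the absence of GTP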
T1 construct: the A2A receptor in rat striatum; from tissue; host or cells: rat striatum
T1 sequence (P30543 whole entry): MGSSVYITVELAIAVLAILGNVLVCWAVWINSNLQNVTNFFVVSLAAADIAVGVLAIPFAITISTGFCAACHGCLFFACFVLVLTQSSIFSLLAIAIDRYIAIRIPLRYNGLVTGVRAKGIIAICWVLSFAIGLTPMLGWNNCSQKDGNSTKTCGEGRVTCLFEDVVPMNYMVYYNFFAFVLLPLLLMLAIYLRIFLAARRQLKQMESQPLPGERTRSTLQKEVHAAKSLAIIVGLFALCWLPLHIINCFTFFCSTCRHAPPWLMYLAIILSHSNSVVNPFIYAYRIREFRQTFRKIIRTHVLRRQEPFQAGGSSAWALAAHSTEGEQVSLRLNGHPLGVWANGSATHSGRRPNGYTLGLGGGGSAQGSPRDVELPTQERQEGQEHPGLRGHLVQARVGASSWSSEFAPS
Protocol: Incubations were carried out for 1 hr at 37° C. and were terminated by rapid filtration over Whatman GF/B filters, using a Brandell cell harvester (Brandell, Gaithersburg, Md.). Tubes were washed three times with 3 ml of buffer. Radioactivity was determined in a Beckman 5500B γ-counter. Nonspecific binding was determined in the presence of 10^−5 M R-PIA.
All compounds were tested in radioligand binding assays to determine their affinities for the adenosine A1 receptor in rat brain cortex, the A2A receptor in rat striatum and the human A3 receptor as expressed in HEK 293 cells (Table 2). […] AB-MECA, an A3 receptor agonist, was also used. Displacement experiments were performed in the absence of GTP.

[2] = biological target: T2, human adenosine A1 receptors expressed in CHO cells (Homo sapiens, UniProt P30542); assay: cAMP assay A1 (inhibition of forskolin-induced cAMP production); type: cell-based; conditions: compared to reference full agonist CPA (10 μM) in A1 CHO cells; tested at ±100 × Ki; ±SEM, n = 3; forskolin 10 μM
T2 construct: expressed in transfected cells; host or cells: CHO cells
T2 sequence (P30542 1-326): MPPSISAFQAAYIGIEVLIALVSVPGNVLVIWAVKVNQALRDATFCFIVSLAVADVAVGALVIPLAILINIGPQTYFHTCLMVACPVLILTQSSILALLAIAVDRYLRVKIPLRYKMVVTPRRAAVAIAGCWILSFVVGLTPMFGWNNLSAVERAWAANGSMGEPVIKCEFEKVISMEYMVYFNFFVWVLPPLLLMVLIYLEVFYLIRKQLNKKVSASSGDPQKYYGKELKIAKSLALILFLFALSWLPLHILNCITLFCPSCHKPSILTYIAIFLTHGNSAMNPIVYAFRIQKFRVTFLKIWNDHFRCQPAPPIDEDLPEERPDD
Protocol: cAMP assay A1 and A3 CHO cells expressing either the human adenosine A1 or A3 receptor were grown overnight as a monolayer in 24 wells tissue culture plates (400 μl/well; 2×10^5cells/well). cAMP generation was performed in Dulbecco's Modified Eagles Medium (DMEM)/N-2-hydroxyethylpiperazin-N′-2-ethansulfonic acid (HEPES) buffer (0.60 g HEPES/50 ml DMEM pH 7.4). […] After incubation for 40 minutes at 37° C., 100 μl forskolin (final concentration 10 μM) was added. After 15 minutes at 37° C., the reaction was terminated by removing the medium and adding 200 μL 0.1 M HCl. Wells were stored at −20° C. until assay
The amounts of cAMP were determined after a protocol with cAMP binding protein^28 with the following minor modifications. As a buffer was used 150 mM K2HPO4/10 mM EDTA/0.2% Bovine Serum Albumine (BSA) at pH 7.5. Samples (20 μl+30 μl 0.1 M HCl) were incubated for at least 2.5 hours at 0° C. before filtration over Whatman GF/B filters. Filters were additionally rinsed with 2×2 ml TrisHCl buffer (pH 7.4, 4° C.). Filters were counted in Packard Emulsifier Safe scintillation fluid (3.5 ml) after 24 hours of extraction. […]

SMILES	Ki [1] [nM]	% inhib. A1 of forskolin-induced cAMP [2] [%]	melting point [°C]
COC[C@H]1O[C@@H](n2cnc3c(N)ncnc32)[C@H](O)[C@@H]1O [Compound 66, 5′-O-methyladenosine]	261 ± 65	75 ± 3	112 to 114
COC[C@H]1O[C@@H](n2cnc3c(N)nc(Cl)nc32)[C@H](O)[C@@H]1O [Compound 69, 2-Chloro-5′-O-methyladenosine]	284 ± 55	78 ± 4	200 to 202
CCOC[C@H]1O[C@@H](n2cnc3c(N)ncnc32)[C@H](O)[C@@H]1O [Compound 72, 5′-O-Ethyladenosine]	415 ± 69	57 ± 11	110 to 112
CCOC[C@H]1O[C@@H](n2cnc3c(N)nc(Cl)nc32)[C@H](O)[C@@H]1O [Compound 75, 2-Chloro-5′-O-ethyladenosine]	659 ± 168	67 ± 7	117 to 119
Nc1nc(Cl)nc2c1ncn2[C@@H]1O[C@H](COC2CC2)[C@@H](O)[C@H]1O [Compound 81, 2-Chloro-5′-O-cyclopropyladenosine]	885 ± 89	49 ± 9	122 to 124
